For one assay, the system named is pERK in ASPC1 cells. The experiment in a line: Inhibition of KRas phosphorylation of ERK (Cisbio HTRF pERK assay). Particulars: Homo sapiens, ASPC1, read-out: Inhibition (HTRF IC50) of KRas-mediated Phosphorylation of ERK, AsPC-1. (TR-FRET usually uses a lanthanide donor and a delayed reading to cut background.)
A further assay has as its system pERK in H727 cells. The description is as above. Particulars: Homo sapiens, NCI-H727, read-out: Inhibition (HTRF IC50) of KRas-mediated Phosphorylation of ERK, H727.
In another assay the target is KRas G12C (Homo sapiens, UniProt P01116, G12C). The experiment in a line: biochemical.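 Further: binding to KRas assessed by TR-FRET displacement after one hour incubation at room temperature, potency fitted from percent-of-control values.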
A further assay deals with KRas G12D (Homo sapiens, UniProt P01116, G12D). The experiment in a line: biochemical.
The target in the next assay is KRas G12V (Homo sapiens, UniProt P01116, G12V). Nature of the assay: biochemical.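 Further: KRas binding measured by TR-FRET displacement at room temperature, IC50 fitted from percent of control values.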
Another assay concerns the target KRas G12R (Homo sapiens, UniProt P01116, G12R). Nature of the assay: biochemical.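 Further: TR-FRET displacement assay of compound binding to KRas, read after one hour at room temperature, potency from a four-parameter fit of percent-of-control values.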
A further assay relates to pERK in MKN1 cells. Nature of the assay: Inhibition of KRas phosphorylation of ERK (Cisbio HTRF pERK assay). Particulars: Homo sapiens, MKN-1, 3 h, read-out: Inhibition (HTRF IC50) of KRas-mediated Phosphorylation of ERK, MKN1.
For a further assay, the system named is pERK in PSN1 cells. The assay is described as above. Particulars: Homo sapiens, PSN1, 3 h, read-out: Inhibition (HTRF IC50) of KRas-mediated Phosphorylation of ERK, PSN1.

One may read the IC50 as the concentration that inhibits the measured activity by half.

KRas G12R, sequence (P01116 1-169 isoform P01116-2 G12R): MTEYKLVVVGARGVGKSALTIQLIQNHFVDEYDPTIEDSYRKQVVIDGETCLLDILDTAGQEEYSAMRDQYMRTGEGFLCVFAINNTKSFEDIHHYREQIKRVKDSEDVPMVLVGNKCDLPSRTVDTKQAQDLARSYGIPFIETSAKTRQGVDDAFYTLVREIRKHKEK
KRas G12D, sequence (P01116 1-169 isoform P01116-2 G12D): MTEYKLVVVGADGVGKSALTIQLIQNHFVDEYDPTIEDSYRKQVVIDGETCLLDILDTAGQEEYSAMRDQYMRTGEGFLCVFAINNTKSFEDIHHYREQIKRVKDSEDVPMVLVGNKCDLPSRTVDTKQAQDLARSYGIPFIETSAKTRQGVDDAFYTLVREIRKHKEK
KRas G12V, sequence (P01116 1-169 isoform P01116-2 G12V): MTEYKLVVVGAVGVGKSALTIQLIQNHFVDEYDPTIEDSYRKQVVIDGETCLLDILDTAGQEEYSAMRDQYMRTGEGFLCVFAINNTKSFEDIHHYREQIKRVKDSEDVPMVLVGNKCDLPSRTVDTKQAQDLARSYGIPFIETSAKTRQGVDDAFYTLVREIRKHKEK
KRas G12C, sequence (P01116 1-169 isoform P01116-2 G12C): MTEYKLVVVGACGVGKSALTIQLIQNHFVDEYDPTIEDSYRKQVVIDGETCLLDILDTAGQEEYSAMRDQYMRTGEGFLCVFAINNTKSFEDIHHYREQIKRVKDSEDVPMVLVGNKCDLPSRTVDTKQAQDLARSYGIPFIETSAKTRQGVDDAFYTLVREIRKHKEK

`Cc1cc2[nH]ncc2c(-c2ncc3c(N4CCCC(C)(O)C4)nc(OCC45CCCN4CCC5)nc3c2F)c1C` (stereo not drawn) [Example 25, 1-(7-(5,6-dimethyl-1H-indazol-4-yl)-8-fluoro-2-((hexahydro-1H-pyrrolizin-7a-yl)methoxy)pyrido[4,3-d]pyrimidin-4-yl)-3-methylpiperidin-3-ol]: the IC50 in the assay on pERK in ASPC1 cells was at least 10000 nM; in the assay with pERK in H727 cells, at least 10000 nM; against KRas G12C, 679 nM; against KRas G12D it was 433 nM; on KRas G12V it was 633 nM; against KRas G12R it was 1310 nM.

Regarding `CCc1c(F)ccc2cc(O)cc(-c3ncc4c(N5C[C@H]6C[C@@H](C5)[C@H](CO)[C@H]6O)nc(OC[C@@]56CCCN5C[C@H](F)C6)nc4c3F)c12` [Example 486, (1 R,5R,6S,7R)-3-(7-(8-ethyl-7-fluoro-3-hydroxynaphthalen-1-yl)-8-fluoro-2-(((2R,7aS)-2-fluorohexahydro-1H-pyrrolizin-7a-yl)methoxy)pyrido[4,3-d]pyrimidin-4-yl)-7-(hydroxymethyl)-3-azabicyclo[3.2.1]octan-6-ol], the IC50 was at least 10000 nM in the assay with pERK in ASPC1 cells; at least 10000 nM with pERK in H727 cells; 336 nM against KRas G12D; 170 nM against KRas G12V; 186 nM on KRas G12R.

`CCc1c(F)ccc2cc(O)cc(-c3ncc4c(N5CCC6C(=O)NC(=O)C6C5)nc(OC[C@@]56CCCN5C[C@H](F)C6)nc4c3F)c12` (stereo partly drawn) [Example 487, 5-(7-(8-ethyl-7-fluoro-3-hydroxynaphthalen-1-yl)-8-fluoro-2-(((2R,7aS)-2-fluorohexahydro-1H-pyrrolizin-7a-yl)methoxy)pyrido[4,3-d]pyrimidin-4-yl)hexahydro-1H-pyrrolo[3,4-c]pyridine-1,3(2H)-dione]: the IC50 is at least 10000 nM in the assay on pERK in ASPC1 cells; 4990 nM with pERK in H727 cells; 14 nM at KRas G12D; 5 nM on KRas G12V; 6 nM on KRas G12R.

Consider `CCc1c(F)ccc2cc(O)cc(-c3ncc4c(N(C)CC5CNS(=O)(=O)N5)nc(OC[C@@]56CCCN5C[C@H](F)C6)nc4c3F)c12` (stereo partly drawn) [Example 495], for which the half-maximal inhibitory concentration (IC50) in the assay on pERK in ASPC1 cells is 1350 nM; in the assay on pERK in H727 cells it was 1820 nM; at KRas G12D, 8 nM; at KRas G12V it was at most 2 nM; against KRas G12R, 7 nM.

Turning to `CCc1c(F)ccc2cc(O)cc(-c3ncc4c(N5C[C@H](CO)OC[C@](C)(O)C5)nc(OC[C@@]56CCCN5C[C@H](F)C6)nc4c3F)c12` [Example 497, (2R,6R)-4-(7-(8-ethyl-7-fluoro-3-hydroxynaphthalen-1-yl)-8-fluoro-2-(((2R,7aS)-2-fluorohexahydro-1H-pyrrolizin-7a-yl)methoxy)pyrido[4,3-d]pyrimidin-4-yl)-2-(hydroxymethyl)-6-methyl-1,4-oxazepan-6-ol], the concentration for half-maximal inhibition (IC50) in the assay on pERK in ASPC1 cells is 987 nM; in the assay with pERK in H727 cells, 503 nM; in the assay with pERK in MKN1 cells it was 43 nM; with pERK in PSN1 cells, at least 10000 nM.

Regarding `CCc1c(F)ccc2cc(O)cc(-c3ncc4c(N5CCCC6(CCS(=N)(=O)C6)C5)nc(OC[C@@]56CCCN5C[C@H](F)C6)nc4c3F)c12` (stereo partly drawn) [Example 508, 7-(7-(8-ethyl-7-fluoro-3-hydroxynaphthalen-1-yl)-8-fluoro-2-(((2R,7aS)-2-fluorohexahydro-1H-pyrrolizin-7a-yl)methoxy)pyrido[4,3-d]pyrimidin-4-yl)-2-imino-2-thia-7-azaspiro[4.5]decane 2-oxide], the half-inhibitory concentration (IC50) in the assay with pERK in ASPC1 cells is 1550 nM; in the assay on pERK in H727 cells, 2190 nM; at KRas G12D, 5 nM; on KRas G12V, 12 nM; against KRas G12R, 14 nM.

Turning to `O=C1CC2(CCCN(c3nc(OCC45CCCN4CCC5)nc4c(F)c(-c5cc(O)cc(Cl)c5C5CC5)ncc34)C2)N1` (stereo not drawn) [Example 518, 6-(7-(3-chloro-2-cyclopropyl-5-hydroxyphenyl)-8-fluoro-2-((tetrahydro-1H-pyrrolizin-7a(5H)-yl)methoxy)pyrido[4,3-d]pyrimidin-4-yl)-1,6-diazaspiro[3.5]nonan-2-one], the half-inhibitory concentration (IC50) was at least 10000 nM in the assay on pERK in ASPC1 cells; 9210 nM with pERK in H727 cells; at most 2 nM at KRas G12D; at most 2 nM against KRas G12V; at most 2 nM at KRas G12R.

Consider `O=C1NC(=O)C2CN(c3nc(OCC45CCCN4CCC5)nc4c(F)c(-c5cc(O)cc(Cl)c5C5CC5)ncc34)CC12` (stereo not drawn) [Example 519, 5-(7-(3-chloro-2-cyclopropyl-5-hydroxyphenyl)-8-fluoro-2-((tetrahydro-1H-pyrrolizin-7a(5H)-yl)methoxy)pyrido[4,3-d]pyrimidin-4-yl)tetrahydropyrrolo[3,4-c]pyrrole-1,3(2H,3aH)-dione], for which the concentration for half-maximal inhibition (IC50) with pERK in ASPC1 cells was at least 10000 nM; in the assay on pERK in H727 cells, at least 10000 nM; at KRas G12D it was at most 2 nM; against KRas G12V, at most 2 nM; on KRas G12R, at most 2 nM.

For `Cc1cc2[nH]ncc2c(-c2ncc3c(N4CCC[C@@](C)(O)C4)nc(OCC4(CN(C)C)CC4)nc3c2F)c1C` [Example 520, (3R)-1-(7-(5,6-dimethyl-1H-indazol-4-yl)-2-((1-((dimethylamino)methyl)cyclopropyl)methoxy)-8-fluoropyrido[4,3-d]pyrimidin-4-yl)-3-methylpiperidin-3-ol], the IC50 in the assay on pERK in ASPC1 cells is at least 10000 nM; in the assay on pERK in H727 cells, at least 10000 nM; on KRas G12D, 692 nM; against KRas G12V, 614 nM; against KRas G12R, 1750 nM.

As for `Cc1cc2[nH]ncc2c(-c2ncc3c(N4CCCC5(CNS(=O)(=O)N5)C4)nc(OCC45CCCN4CCC5)nc3c2F)c1C` (stereo not drawn) [Example 521, 7-(7-(5,6-dimethyl-1H-indazol-4-yl)-8-fluoro-2-((hexahydro-1H-pyrrolizin-7a-yl)methoxy)pyrido[4,3-d]pyrimidin-4-yl)-2-thia-1,3,7-triazaspiro[4.5]decane 2,2-dioxide], the half-inhibitory concentration (IC50) in the assay with pERK in ASPC1 cells was at least 10000 nM; in the assay with pERK in H727 cells, at least 10000 nM; against KRas G12D, 4 nM; on KRas G12V, at most 2 nM; at KRas G12R it was 3 nM.

With `Cc1cc2[nH]ncc2c(-c2ncc3c(N4CCOCC(C)(O)C4)nc(OCC45CCCN4CCC5)nc3c2F)c1C` (stereo not drawn) [Example 522, 4-(7-(5,6-dimethyl-1H-indazol-4-yl)-8-fluoro-2-((hexahydro-1H-pyrrolizin-7a-yl)methoxy)pyrido[4,3-d]pyrimidin-4-yl)-6-methyl-1,4-oxazepan-6-ol], the 50% inhibitory concentration (IC50) is at least 10000 nM in the assay on pERK in ASPC1 cells; at least 10000 nM in the assay on pERK in H727 cells; 292 nM against KRas G12D; 390 nM against KRas G12V; 759 nM against KRas G12R.

In the case of `Cc1cc2[nH]ncc2c(-c2ncc3c(N4CCCC5(CC(=O)N5)C4)nc(OCC45CCCN4CCC5)nc3c2F)c1C` (stereo not drawn) [Example 523, 6-(7-(5,6-dimethyl-1H-indazol-4-yl)-8-fluoro-2-((hexahydro-1H-pyrrolizin-7a-yl)methoxy)pyrido[4,3-d]pyrimidin-4-yl)-1,6-diazaspiro[3.5]nonan-2-one], the IC50 was at least 10000 nM in the assay with pERK in ASPC1 cells; at least 10000 nM with pERK in H727 cells; 166 nM on KRas G12D; 129 nM at KRas G12V; 217 nM against KRas G12R.
